In patent publication US7745443B2 (Sanofi-Aventis Deutschland GmbH, priority 2002, dated 2010) one finds IC50 data, which are given here for 13 compounds.

For this assay, the target named is binding of human von Willebrand factor to europium (Eu)-chelate-labeled chimeric GPIb-Fc protein (Homo sapiens, UniProt P04275+P07359). Nature of the assay: Von Willebrand Factor-GPIb Binding Assay (Eu based, botrocetin-induced). To be noted: botrocetin-induced binding of Eu-chelate-labeled chimeric GPIb-Fc to immobilized human vWF; IC50 values as specified in the examples. The procedure: Activity of compounds of the formula I was shown by an Eu based binding assay in which the binding of human von Willebrand factor to an europium (Eu)-chelate-labeled chimeric GPIb-Fc protein was induced by botrocetin. The preparation of the Eu-chelate-labeled chimeric GPIb-Fc protein is described in detail in a patent application (Fukuchi et al., EP1074564).
binding of human von Willebrand factor to europium (Eu)-chelate-labeled chimeric GPIb-Fc protein, sequence (P04275 764-2813 limits assumed, change not shown): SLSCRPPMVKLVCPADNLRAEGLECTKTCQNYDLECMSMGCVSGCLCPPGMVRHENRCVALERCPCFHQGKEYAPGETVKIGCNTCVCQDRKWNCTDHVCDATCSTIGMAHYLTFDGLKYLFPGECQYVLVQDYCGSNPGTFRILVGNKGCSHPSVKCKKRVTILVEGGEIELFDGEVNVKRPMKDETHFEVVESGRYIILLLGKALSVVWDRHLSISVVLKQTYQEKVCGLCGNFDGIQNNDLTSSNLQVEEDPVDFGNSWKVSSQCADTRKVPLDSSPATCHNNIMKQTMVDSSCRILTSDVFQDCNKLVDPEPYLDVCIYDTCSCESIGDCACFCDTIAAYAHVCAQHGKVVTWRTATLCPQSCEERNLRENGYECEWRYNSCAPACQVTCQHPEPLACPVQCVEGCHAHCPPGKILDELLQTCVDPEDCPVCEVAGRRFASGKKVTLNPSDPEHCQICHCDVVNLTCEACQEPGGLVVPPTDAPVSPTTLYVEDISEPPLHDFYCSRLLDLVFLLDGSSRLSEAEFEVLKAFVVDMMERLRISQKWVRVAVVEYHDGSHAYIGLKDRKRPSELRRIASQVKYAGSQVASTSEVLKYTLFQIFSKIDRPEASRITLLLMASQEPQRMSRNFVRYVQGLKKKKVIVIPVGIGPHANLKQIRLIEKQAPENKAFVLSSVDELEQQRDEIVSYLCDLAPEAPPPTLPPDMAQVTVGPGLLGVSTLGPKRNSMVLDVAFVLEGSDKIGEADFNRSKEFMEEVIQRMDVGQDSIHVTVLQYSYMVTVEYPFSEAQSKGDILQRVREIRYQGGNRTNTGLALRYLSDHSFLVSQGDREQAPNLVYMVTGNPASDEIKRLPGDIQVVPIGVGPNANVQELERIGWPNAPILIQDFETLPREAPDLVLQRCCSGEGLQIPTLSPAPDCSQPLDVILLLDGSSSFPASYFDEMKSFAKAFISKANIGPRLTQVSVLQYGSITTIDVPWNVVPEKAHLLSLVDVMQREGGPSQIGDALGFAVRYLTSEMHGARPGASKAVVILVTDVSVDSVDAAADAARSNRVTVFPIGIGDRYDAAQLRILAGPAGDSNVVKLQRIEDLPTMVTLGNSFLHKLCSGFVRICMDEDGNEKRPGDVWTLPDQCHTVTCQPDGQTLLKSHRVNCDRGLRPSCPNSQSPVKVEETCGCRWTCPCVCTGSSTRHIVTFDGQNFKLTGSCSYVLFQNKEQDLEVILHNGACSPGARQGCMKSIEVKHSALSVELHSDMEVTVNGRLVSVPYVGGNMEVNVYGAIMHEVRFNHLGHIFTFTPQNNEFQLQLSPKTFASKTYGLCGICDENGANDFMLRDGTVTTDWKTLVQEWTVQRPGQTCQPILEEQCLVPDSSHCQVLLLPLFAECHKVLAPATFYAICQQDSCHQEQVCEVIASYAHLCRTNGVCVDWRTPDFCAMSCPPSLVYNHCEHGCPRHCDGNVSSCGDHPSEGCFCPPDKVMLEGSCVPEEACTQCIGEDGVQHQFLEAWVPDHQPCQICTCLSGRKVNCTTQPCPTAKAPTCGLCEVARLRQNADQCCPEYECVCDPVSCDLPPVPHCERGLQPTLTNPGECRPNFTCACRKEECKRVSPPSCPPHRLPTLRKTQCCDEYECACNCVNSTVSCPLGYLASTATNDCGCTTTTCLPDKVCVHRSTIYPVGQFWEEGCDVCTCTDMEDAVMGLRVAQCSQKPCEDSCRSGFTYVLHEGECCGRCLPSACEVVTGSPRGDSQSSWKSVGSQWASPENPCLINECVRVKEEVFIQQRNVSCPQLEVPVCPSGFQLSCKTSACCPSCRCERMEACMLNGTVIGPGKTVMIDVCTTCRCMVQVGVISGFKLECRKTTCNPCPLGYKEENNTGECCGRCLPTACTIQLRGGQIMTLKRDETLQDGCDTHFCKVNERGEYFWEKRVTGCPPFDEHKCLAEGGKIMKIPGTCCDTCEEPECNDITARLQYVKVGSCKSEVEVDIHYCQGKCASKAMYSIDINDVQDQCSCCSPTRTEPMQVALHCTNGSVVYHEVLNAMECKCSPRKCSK
binding of human von Willebrand factor to europium (Eu)-chelate-labeled chimeric GPIb-Fc protein, sequence (P07359 17-335 limits assumed, change not shown): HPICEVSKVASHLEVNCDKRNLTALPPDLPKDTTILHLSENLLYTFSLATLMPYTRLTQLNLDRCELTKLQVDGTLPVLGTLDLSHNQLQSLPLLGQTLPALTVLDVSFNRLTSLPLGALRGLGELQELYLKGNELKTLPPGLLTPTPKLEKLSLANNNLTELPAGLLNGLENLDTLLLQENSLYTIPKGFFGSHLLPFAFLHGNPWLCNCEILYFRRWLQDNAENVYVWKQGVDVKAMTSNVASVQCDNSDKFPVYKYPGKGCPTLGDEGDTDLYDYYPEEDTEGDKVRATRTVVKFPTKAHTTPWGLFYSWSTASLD
A TBS (Tris buffered saline, 20 mM Tris-HCl (pH 7.4) and 0.15 M NaCl) (50 microl) containing human von Willebrand factor (2.5 microg/ml) was added to each well of 1 96-well plate, and the von Willebrand factor was immobilized as a solid phase overnight at 4 dec. Each well was washed once with TBS (150 microl) and blocked with TBS containing 5% BSA (bovine serum albumin) for about 3 hours. Each well of the plate was washed twice with TBS (150 microl), and then added with 25 microl of an assay buffer (Assay Buffer, 1244-106, produced by Wallac) with the compounds, further added with the assay buffer (25 microl) containing the europium (Eu)-chelate-labeled chimeric GPIb-Fc protein (100 ng/ml), labeled with Eu-N1-ITC (Eu-chelate of N^1-(p-isothiocyanatebenzyl)-diethlenetriamine-N^1,N^2,N^3,N^3-tetraacetic acid, 1244-302, produced by Wallac) and botrocetin (500 ng/ml), and left stand at room temperature for 2 hours. The preparation of the Eu-chelate-labeled chimeric GPIb-Fc protein is described in detail in a patent application (Fukuchi et al., EP1074564). Each well of the plate was washed 5 times with TBS (150 microl) containing 0.05% Tween-20, then added with 100 microl of a fluorescence enhancement buffer (Enhancement Solution, 1244-104, produced by Wallac), and shaken for 1 minute. Then, the amount of europium (Eu) was measured by using a 1420 ARVO multi-label counter (produced by Wallac, measurements time: 1 second).

For the compound `Cc1cc(N)c2cc(C(=O)Nc3ccc(CNC(=O)c4ccccn4)cc3)ccc2n1` [Example 12, 4-Amino-2-methyl-N-(4-{[(2-pyridinylcarbonyl)amino]methyl}phenyl)-6-quinolinecarboxamide], the IC50 (usually the midpoint of a concentration-inhibition curve) was found to be 58.4 µM. Regarding `Cc1cc(N)c2cc(C(=O)Nc3ccc(CNC(=O)c4cncc(Br)c4)cc3)ccc2n1` [Example 14, 4-Amino-N-[4-({[(3-bromo-5-pyridinyl)carbonyl]amino}methyl)phenyl]-2-methyl-6-quinolinecarboxamide], the IC50 was 28.8 µM. The figure for “4-Amino-N-(4-{[(2-methyl-1H-benzimidazol-5-yl)carbonyl]amino}phenyl)-2-methyl-6-quinolinecarboxamide [Example 28]” is 9.56 µM; for `Cc1cc(N)c2cc(C(=O)Nc3ccc(CNC(=O)c4ccc(Cl)nc4)cc3)ccc2n1` [Example 11, 4-Amino-N-[4-({[(6-chloro-3-pyridinyl)carbonyl]amino}methyl)phenyl]-2-methyl-6-quinolinecarboxamide] it is 42.9 µM. `Cc1cc(N)c2cc(C(=O)Nc3ccc(NC(=O)c4nccnc4N)cc3)ccc2n1` [Example 20, 4-Amino-N-(4-{[(2-amino-3-pyrazinyl)carbonyl]amino}phenyl)-2-methyl-6-quinolinecarboxamide]: the IC50 was determined as 4.41 µM.

`Cc1cc(N)c2cc(C(=O)Nc3ccc(NC(=O)c4ccc5[nH]cnc5c4)cc3)ccc2n1` [Example 32, 4-amino-N-{4-[(1H-benzimidazol-5-ylcarbonyl)amino]phenyl}-2-methyl-6-quinolinecarboxamide] had an IC50 of 7.5 µM. The figure for `Cc1cc(N)c2cc(C(=O)Nc3ccc(NC(=O)c4ccccn4)cc3)ccc2n1` [Example 16, 4-Amino-N-{4-[(2-pyridinylcarbonyl)amino]phenyl}-2-methyl-6-quinolinecarboxamide] is 43.2 µM; for `Cc1cc(N)c2cc(C(=O)Nc3ccc(CNC(=O)c4nccnc4N)cc3)ccc2n1` [Example 15, 4-Amino-N-[4-({[(3-amino-2-pyrazinyl)carbonyl]amino}methyl)phenyl]-2-methyl-6-quinolinecarboxamide] it is 54.7 µM. The figure for `Cc1cc(N)c2cc(C(=O)Nc3ccc(NC(=O)c4ccc(N)nc4)cc3)ccc2n1` [Example 22, 4-Amino-N-(4-{[(2-amino-5-pyridinyl)carbonyl]amino}phenyl)-2-methyl-6-quinolinecarboxamide] is 11.1 µM. On to `Cc1cc(N)c2cc(C(=O)Nc3ccc(NC(=O)c4cccnc4)cc3)ccc2n1` [Example 17, 4-Amino-N-{4-[(3-pyridinylcarbonyl)amino]phenyl}-2-methyl-6-quinolinecarboxamide], for which the IC50 stood at 15 µM. The compound `Cc1cc(N)c2cc(C(=O)Nc3ccc(NC(=O)c4cncc(Br)c4)cc3)ccc2n1` [Example 19, 4-Amino-N-(4-{[(5-bromo-3-pyridinyl)carbonyl]amino}phenyl)-2-methyl-6-quinolinecarboxamide] returned an IC50 of 20.9 µM. The figure for `Cc1cc(N)c2cc(C(=O)Nc3ccc(NC(=O)c4ccc5nc(N)sc5c4)cc3)ccc2n1` [Example 31] is 2.9 µM; for `Cc1cc(N)c2cc(C(=O)Nc3ccc(NC(=O)c4cnccn4)cc3)ccc2n1` [Example 24, 4-Amino-N-(4-{[(2-pyrazinyl)carbonyl]amino}phenyl)-2-methyl-6-quinolinecarboxamide] it is 15.2 µM.
